# Data from patent US12655116B2, “Substituted isophthalic acid diamides” (Bayer Aktiengesellschaft, priority 2020, dated 2026).
# Tests used:
# AMARE [1] = assay: Pre-emergence herbicidal action against AMARE; assay type: in vivo, Amaranthus retroflexus
# Summary of the method: (§1)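 Pre-emergence soil-surface spray of formulated compound (WP or EC; 600 to 800 l/ha; 0.2% wetting agent) over seeds sown in sandy loam. After 3 weeks under greenhouse conditions, damage is estimated visually in percent against untreated plants.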
# PHBPU [2] = assay: Post-emergence herbicidal action against PHBPU; assay type: in vivo, Pharbitis purpurea; conditions: Ipomoea purpurea, 504 h
# Summary of the method: (§2)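 Greenhouse plants in sandy loam were sprayed at the one-leaf stage, 2 to 3 weeks after sowing, with WP or EC formulations as aqueous suspension or emulsion (600 to 800 l/ha water, 0.2% wetting agent). Visual damage was scored about 3 weeks later versus untreated controls, 0% = like control, 100% = dead.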
# MATIN [3] = assay: Post-emergence herbicidal action against MATIN; assay type: in vivo, Matricaria inodora; conditions: Tripleurospermum inodorum, 504 h
# Summary of the method: as §2
# VIOTR [4] = assay: Post-emergence herbicidal action against VIOTR; assay type: in vivo, Viola tricolor; conditions: 20 g/ha
# Summary of the method: as §2
# ALOMY [5] = assay: Pre-emergence herbicidal action against ALOMY; assay type: in vivo, Alopecurus myosuroides; conditions: Alopecurus myosuroides, 504 h; 80 g/ha, pre-emergence, scored visually after 3 weeks vs untreated controls (100% = plants have died, 0% = like control plants)
# Summary of the method: as §1
# POLCO [6] = assay: Post-emergence herbicidal action against POLCO; assay type: in vivo, Polygonum convolvulus; conditions: dosage 20 g/ha
# Summary of the method: as §2
# AMARE [7] = assay: Post-emergence herbicidal action against AMARE; assay type: in vivo, Amaranthus retroflexus; conditions: 20 g/ha, visual assessment about 3 weeks after treatment, 100% = plants have died, 0% = like control plants
# Summary of the method: as §2
# PHBPU [8] = assay: Pre-emergence herbicidal action against PHBPU; assay type: in vivo, Pharbitis purpurea; conditions: Ipomoea purpurea, 504 h, dosage 80 g/ha
# Summary of the method: as §1
# VIOTR [9] = assay: Pre-emergence herbicidal action against VIOTR; assay type: in vivo, Viola tricolor
# Summary of the method: as §1
# DIGSA [10] = assay: Post-emergence herbicidal action against DIGSA; assay type: in vivo, Digitaria sanguinalis; conditions: Digitaria sanguinalis, 504 h
# Summary of the method: as §2
# ABUTH [11] = assay: Post-emergence herbicidal action against ABUTH; assay type: in vivo, Abutilon theophrasti; conditions: visual assessment about 3 weeks after treatment vs untreated controls
# Summary of the method: as §2
# AVEFA [12] = assay: Post-emergence herbicidal action against AVEFA; assay type: in vivo, Avena fatua; conditions: Avena fatua, 504 h, 20 g/ha, visual assessment about 3 weeks after treatment, 100% = plants have died, 0% = like control plants
# Summary of the method: as §2
# ECHCG [13] = assay: Pre-emergence herbicidal action against ECHCG; assay type: in vivo, Echinochloa crus-galli; conditions: Echinochloa crus-galli, 504 h
# Summary of the method: as §1
# VERPE [14] = assay: Post-emergence herbicidal action against VERPE; assay type: in vivo, Veronica persica; conditions: Veronica persica, 504 h
# Summary of the method: as §2
# DIGSA [15] = assay: Pre-emergence herbicidal action against DIGSA; assay type: in vivo, Digitaria sanguinalis
# Summary of the method: as §1
# AVEFA [16] = assay: Pre-emergence herbicidal action against AVEFA; assay type: in vivo, Avena fatua; conditions: 80 g/ha, pre-emergence
# Summary of the method: as §1
# VERPE [17] = assay: Pre-emergence herbicidal action against VERPE; assay type: in vivo, Veronica persica; conditions: dosage 80 g/ha
# Summary of the method: as §1
# ECHCG [18] = assay: Post-emergence herbicidal action against ECHCG; assay type: in vivo, Echinochloa crus-galli; conditions: Echinochloa crus-galli, 504 h
# Summary of the method: as §2
# STEME [19] = assay: Post-emergence herbicidal action against STEME; assay type: in vivo, Stellaria media
# Summary of the method: as §2
# SETVI [20] = assay: Post-emergence herbicidal action against SETVI; assay type: in vivo, Setaria viridis; conditions: Setaria viridis, 504 h
# Summary of the method: as §2
# ABUTH [21] = assay: Pre-emergence herbicidal action against ABUTH; assay type: in vivo, Abutilon theophrasti
# Summary of the method: as §1
# SETVI [22] = assay: Pre-emergence herbicidal action against SETVI; assay type: in vivo, Setaria viridis; conditions: Setaria viridis, 504 h, dosage 80 g/ha
# Summary of the method: as §1
# MATIN [23] = assay: Pre-emergence herbicidal action against MATIN; assay type: in vivo, Matricaria inodora
# Summary of the method: as §1
# POLCO [24] = assay: Pre-emergence herbicidal action against POLCO; assay type: in vivo, Polygonum convolvulus; conditions: Fallopia convolvulus, 504 h, dosage 80 g/ha
# Summary of the method: as §1
# ALOMY [25] = assay: Post-emergence herbicidal action against ALOMY; assay type: in vivo, Alopecurus myosuroides; conditions: Alopecurus myosuroides, 504 h, dosage 20 g/ha, visual assessment about 3 weeks after treatment vs untreated controls
# Summary of the method: as §2
# STEME [26] = assay: Pre-emergence herbicidal action against STEME; assay type: in vivo, Stellaria media
# Summary of the method: as §1
# [27] = 80 g/ha, scored visually after 3 weeks vs untreated controls (100% = plants have died, 0% = like control plants)
compound,measurement,setting,value
CCNC(=O)c1c(C(F)F)ccc(C(=O)Nc2nnnn2C)c1SC [Example 1-88],pest or weed control at 20 g/ha,"AMARE [1]; Amaranthus retroflexus, 504 h, 20 g/ha, scored visually after 3 weeks vs untreated controls, 100% = plants have died, 0% = like control plants",100%
same,pest or weed control at 80 g/ha,"AMARE [1]; Amaranthus retroflexus, 504 h, 80 g/ha, scored visually after 3 weeks vs untreated controls, 100% = plants have died, 0% = like control plants",100%
same,pest or weed control at 5 g/ha,PHBPU [2]; dosage 5 g/ha,80%
same,pest or weed control at 20 g/ha,PHBPU [2]; dosage 20 g/ha,90%
same,pest or weed control at 5 g/ha,MATIN [3]; dosage 5 g/ha,80%
same,pest or weed control at 20 g/ha,MATIN [3]; dosage 20 g/ha,80%
same,pest or weed control at 20 g/ha,"VIOTR [4]; Viola tricolor, 504 h",80%
same,pest or weed control at 80 g/ha,ALOMY [5],90%
same,pest or weed control at 20 g/ha,"POLCO [6]; Fallopia convolvulus, 504 h",80%
same,pest or weed control at 20 g/ha,"AMARE [7]; Amaranthus retroflexus, 504 h",90%
same,pest or weed control at 80 g/ha,PHBPU [8],90%
same,pest or weed control at 20 g/ha,"VIOTR [9]; Viola tricolor, 504 h, dosage 20 g/ha",100%
same,pest or weed control at 80 g/ha,"VIOTR [9]; Viola tricolor, 504 h, dosage 80 g/ha",100%
same,pest or weed control at 5 g/ha,DIGSA [10]; 5 g/ha,90%
same,pest or weed control at 20 g/ha,DIGSA [10]; 20 g/ha,90%
same,pest or weed control at 5 g/ha,"ABUTH [11]; Abutilon theophrasti, 504 h, dosage 5 g/ha",90%
same,pest or weed control at 20 g/ha,"ABUTH [11]; Abutilon theophrasti, 504 h, dosage 20 g/ha",90%
same,pest or weed control at 20 g/ha,AVEFA [12],80%
same,pest or weed control at 20 g/ha,ECHCG [13]; 20 g/ha,90%
same,pest or weed control at 80 g/ha,ECHCG [13]; 80 g/ha,100%
same,pest or weed control at 5 g/ha,VERPE [14]; 5 g/ha,80%
same,pest or weed control at 20 g/ha,VERPE [14]; 20 g/ha,90%
same,pest or weed control at 20 g/ha,"DIGSA [15]; Digitaria sanguinalis, 504 h, dosage 20 g/ha",100%
same,pest or weed control at 80 g/ha,"DIGSA [15]; Digitaria sanguinalis, 504 h, dosage 80 g/ha",100%
same,pest or weed control at 80 g/ha,"AVEFA [16]; Avena fatua, 504 h",90%
same,pest or weed control at 80 g/ha,"VERPE [17]; Veronica persica, 504 h",100%
same,pest or weed control at 5 g/ha,ECHCG [18]; dosage 5 g/ha,80%
same,pest or weed control at 20 g/ha,ECHCG [18]; dosage 20 g/ha,90%
same,pest or weed control at 20 g/ha,"STEME [19]; Stellaria media, 504 h, 20 g/ha",90%
same,pest or weed control at 5 g/ha,"STEME [19]; Stellaria media, 504 h, dosage 5 g/ha",90%
same,pest or weed control at 5 g/ha,SETVI [20]; dosage 5 g/ha,80%
same,pest or weed control at 20 g/ha,SETVI [20]; dosage 20 g/ha,90%
same,pest or weed control at 80 g/ha,"ABUTH [21]; Abutilon theophrasti, 504 h, 80 g/ha, scored visually after 3 weeks vs untreated controls (100% = plants have died, 0% = like control plants)",100%
same,pest or weed control at 20 g/ha,"ABUTH [21]; Abutilon theophrasti, 504 h, dosage 20 g/ha, scored visually after 3 weeks vs untreated controls, 100% = plants have died, 0% = like control plants, read-out: Pre-emergence action against ABUTH (herbicidal activity in percent)",100%
same,pest or weed control at 80 g/ha,SETVI [22],100%
same,pest or weed control at 20 g/ha,"MATIN [23]; Tripleurospermum inodorum, 504 h, dosage 20 g/ha",100%
same,pest or weed control at 80 g/ha,"MATIN [23]; Tripleurospermum inodorum, 504 h, dosage 80 g/ha",100%
same,pest or weed control at 80 g/ha,POLCO [24],80%
same,pest or weed control at 20 g/ha,ALOMY [25],80%
same,pest or weed control at 20 g/ha,"STEME [26]; Stellaria media, 504 h, dosage 20 g/ha",100%
same,pest or weed control at 80 g/ha,"STEME [26]; Stellaria media, 504 h, dosage 80 g/ha",100%
CCCn1nnnc1NC(=O)c1ccc(S(C)(=O)=O)c(C(=O)NC2CC2)c1Cl [Example 3-125],Pre-emergence action against AMARE in %,AMARE [1]; [27],100%
same,Post-emergence action against VIOTR in %,VIOTR [4],80%
same,Post-emergence action against POLCO in %,POLCO [6],80%
same,Post-emergence action at 20 g/ha against AMARE in %,AMARE [7],90%
same,Pre-emergence action against VIOTR in %,VIOTR [9]; dosage 80 g/ha,100%
same,Post-emergence action against ABUTH in %,ABUTH [11]; dosage 20 g/ha,80%
same,Pre-emergence action against DIGSA in %,DIGSA [15]; dosage 80 g/ha,80%
same,Pre-emergence action against AVEFA in %,AVEFA [16],80%
same,Pre-emergence action against VERPE in %,VERPE [17],80%
same,Post-emergence action against STEME in %,STEME [19]; 20 g/ha,80%
same,Pre-emergence action against ABUTH (herbicidal activity),ABUTH [21]; [27],100%
same,Pre-emergence action against MATIN in %,MATIN [23]; dosage 20 g/ha,100%
same,Pre-emergence action against MATIN in %,MATIN [23]; dosage 80 g/ha,100%
same,Pre-emergence action against STEME in %,STEME [26]; dosage 20 g/ha,90%
same,Pre-emergence action against STEME in %,STEME [26]; dosage 80 g/ha,100%
